Test results taken from patent US7709516B2, “Helix 12 directed non-steroidal antiandrogens” (Endorecherche, Inc., priority 2005, dated 2010).
Like-named read-outs stand apart in the source and are kept apart here.

How the values were obtained:
[1] = test system: Shionogi mouse mammary carcinoma cells; assay: Androgenic/antiandrogenic activity: inhibition of DHT-stimulated Shionogi cell number; format: cell-based; settings: DHT-stimulated Shionogi cell number
[2] = biological target: T1, Human Androgen Receptor (Homo sapiens, UniProt P10275); assay: Androgen receptor binding assay ([3H]R1881, HAP) in cytosol of HEK-293 cells transfected with hAR; settings: relative to R1881 = 100, transfected cells
T1 sequence (P10275 1-920): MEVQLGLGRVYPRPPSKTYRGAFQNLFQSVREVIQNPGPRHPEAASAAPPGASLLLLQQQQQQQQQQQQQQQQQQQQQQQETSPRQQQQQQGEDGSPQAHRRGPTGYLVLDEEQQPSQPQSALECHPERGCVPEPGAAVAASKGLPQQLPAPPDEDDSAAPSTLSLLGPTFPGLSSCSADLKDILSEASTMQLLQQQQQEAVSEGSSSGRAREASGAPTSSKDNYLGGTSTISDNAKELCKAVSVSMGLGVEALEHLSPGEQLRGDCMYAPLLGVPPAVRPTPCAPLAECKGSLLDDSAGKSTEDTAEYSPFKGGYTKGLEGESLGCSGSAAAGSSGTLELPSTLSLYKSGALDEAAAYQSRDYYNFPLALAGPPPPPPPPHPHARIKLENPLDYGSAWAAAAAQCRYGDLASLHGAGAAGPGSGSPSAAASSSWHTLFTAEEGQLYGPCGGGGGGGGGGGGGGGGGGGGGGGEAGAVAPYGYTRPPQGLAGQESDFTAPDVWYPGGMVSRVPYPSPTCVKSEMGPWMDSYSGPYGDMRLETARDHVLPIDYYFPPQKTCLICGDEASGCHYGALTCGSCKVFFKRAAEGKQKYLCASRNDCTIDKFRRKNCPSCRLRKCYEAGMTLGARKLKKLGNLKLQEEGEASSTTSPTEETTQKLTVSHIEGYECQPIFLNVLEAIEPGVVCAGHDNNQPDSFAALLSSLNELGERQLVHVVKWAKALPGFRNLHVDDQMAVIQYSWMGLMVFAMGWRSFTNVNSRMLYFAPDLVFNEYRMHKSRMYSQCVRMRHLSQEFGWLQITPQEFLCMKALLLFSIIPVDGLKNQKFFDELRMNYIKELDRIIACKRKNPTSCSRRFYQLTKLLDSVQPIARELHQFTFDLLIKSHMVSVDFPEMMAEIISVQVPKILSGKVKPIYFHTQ

[3] = test system: rat prostate, seminal vesicle, levator ani muscle; assay: Systemic antiandrogenic activity in orchidectomized immature male rats with DHT implant; format: in vivo; settings: for Prostate % inhibition / Lev Ani % inhibition / SV % inhibition: Table 2; for inhibition in vivo at 0.5 mg: Rattus norvegicus, 168 h
[4] = Mus musculus, read-out: Shionogi Antiandrogenic Activity IC50, Table 2
[5] = rat +DHT, s.c. or p.o. (route not marked), 0.5 mg/animal daily 7 days
[6] = rat +DHT, s.c. or p.o. (route not marked), levator ani, 0.5 mg/animal daily 7 days
[7] = rat +DHT, s.c. or p.o. (route not marked), seminal vesicle, 0.5 mg/animal daily 7 days
[8] = read-out: Lev Ani % inhibition, Table 2, rat +DHT, s.c. or p.o. (route not marked), levator ani, 0.5 mg/animal daily 7 days
[9] = read-out: Prostate % inhibition, Table 2, rat +DHT, s.c. or p.o. (route not marked), 0.5 mg/animal daily 7 days
[10] = read-out: SV % inhibition, Table 2, rat +DHT, s.c. or p.o. (route not marked), seminal vesicle, 0.5 mg/animal daily 7 days
[11] = Mus musculus, read-out: Shionogi Antiandrogenic Activity IC50, Table 1
[12] = read-out: Lev Ani % inhibition, Table 1, rat +DHT, s.c. or p.o. (route not marked), levator ani, 0.5 mg/animal daily 7 days
[13] = read-out: Prostate % inhibition, Table 1, rat +DHT, s.c. or p.o. (route not marked in cell), 0.5 mg/animal daily 7 days
[14] = read-out: SV % inhibition, Table 1, rat +DHT, s.c. or p.o. (route not marked), seminal vesicle, 0.5 mg/animal daily 7 days
[15] = Prostate cell, po, read-out: Lev Ani % inhibition, Table 1, rat +DHT, p.o, levator ani, 0.5 mg/animal daily 7 days
[16] = Prostate cell, po, read-out: SV % inhibition, Table 1, rat +DHT, p.o, seminal vesicle, 0.5 mg/animal daily 7 days
[17] = po, read-out: Prostate % inhibition, Table 1, rat +DHT, p.o, 0.5 mg/animal daily 7 days

Row | SMILES | IC50 [1, 4] | Human Androgen Receptor Binding (%) RBA R1881 = 100 ([2]; Table 2) | inhibition in vivo at 0.5 mg [3, 8] | inhibition in vivo at 0.5 mg [3, 9] | inhibition in vivo at 0.5 mg [3, 10] | IC50 [1, 11] | Human Androgen Receptor Binding (%) RBA R1881 = 100 ([2]; Table 1) | inhibition in vivo at 0.5 mg [3, 12] | inhibition in vivo at 0.5 mg [3, 13] | inhibition in vivo at 0.5 mg [3, 14] | further results
1 | Cc1cc(CN2CCCC2)ccc1OCCC1(O)CCN(c2ccc(C#N)c(Cl)c2)CC1 [EM-7678] | 0.0138 µM | 3.5% | – | – | – | – | – | – | – | – | Prostate % inhibition [3, 5]: 7%; Lev Ani % inhibition [3, 6]: 9%; SV % inhibition [3, 7]: 10%
2 | CCC(NC1CCCCC1)c1ccc(COCCN2CCN(c3ccc(C#N)c(C(F)(F)F)c3)CC2)cc1 (stereo not drawn) [EM-7727] | 0.0704 µM | <1.0% | 0% | 0% | 8% | – | – | – | – | – | –
3 | Cc1cc(CN2CCCC2)ccc1OCCC1(O)CCN(c2ccc(C#N)c(Cl)c2)CC1 [EM-7735] | – | 9.6% | – | – | – | – | – | – | – | – | IC50 ([1]; read-out: Shionogi Antiandrogenic Activity IC50, Table 2): 0.0079 µM; Prostate % inhibition [3, 5]: 0%; Lev Ani % inhibition [3, 6]: 29%; SV % inhibition [3, 7]: 23%
4 | CCC(c1ccc(OCCC2(O)CCN(c3ccc(C#N)c4ccccc34)CC2)cc1)N1CCCC1 (stereo not drawn) [EM-7738] | – | 10.5% | – | – | – | – | – | – | – | – | IC50 ([1]; Mus musculus, Table 2, read-out: Shionogi Antiandrogenic Activity IC50): 0.0183 µM; inhibition in vivo at 0.5 mg ([3]; read-out: Lev Ani % inhibition): 10%; inhibition in vivo at 0.5 mg ([3]; read-out: Prostate % inhibition): 0%; inhibition in vivo at 0.5 mg ([3]; read-out: SV % inhibition): 16%
5 | Cc1cc(CN2CCCC2)ccc1OCCCN1C(=S)N(c2ccc(C#N)c3ccccc23)C(=O)C1(C)C [EM-7775] | – | – | – | – | – | 0.0605 µM | 13.2% | 10% | 0% | 25% | –
6 | Cc1cc(CN2CCCC2C)ccc1OCCC1(O)CCN(c2ccc(C#N)c(Cl)c2)CC1 (stereo not drawn) [EM-7791] | 0.0205 µM | 1.0% | 14% | 0% | 29% | – | – | – | – | – | –
7 | CCC(CC)NC(CC)c1ccc(COCCN2CCN(c3ccc(C#N)c(C(F)(F)F)c3)CC2)cc1 (stereo not drawn) [EM-7792] | 0.0829 µM | <1.0% | 7% | 21% | 0% | – | – | – | – | – | –
8 | CC1(C)C(=O)N(c2ccc(C#N)c(Cl)c2)C(=S)N1CCCOc1ccc(CNC2CCCC2)cc1 [EM-7819] | – | – | – | – | – | 0.0083 µM | 12.9% | 44% | 54% | 80% | –
9 | CN(C)Cc1ccc(OCCCN2C(=S)N(c3ccc(C#N)c(Cl)c3)C(=O)C2(C)C)cc1 [EM-7821] | – | – | – | – | – | 0.0052 µM | 6.1% | 32% | 50% | 75% | –
10 | CC(C)NCc1ccc(OCCCN2C(=S)N(c3ccc(C#N)c(Cl)c3)C(=O)C2(C)C)cc1 [EM-7822] | – | – | – | – | – | 0.0059 µM | 4.9% | 60% | 53% | 82% | –
11 | CC(C)NCc1ccc(OCCCN2C(=S)N(c3ccc(C#N)c(C(F)(F)F)c3)C(=O)C2(C)C)nc1 [EM-7848] | – | – | – | – | – | 0.0114 µM | 0.5% | 68% | 51% | 86% | –
12 | CC(C)NCc1ccc(OCCCN2C(=S)N(c3ccc(C#N)c(C(F)(F)F)c3)C(=O)C2(C)C)c(F)c1 [EM-7918] | – | – | – | – | – | 0.0066 µM | 16.9% | 53% | 44% | 64% | –
13 | CC(C)NCc1ccc(OCCCN2C(=S)N(c3ccc(C#N)c(C(F)(F)F)c3)C(=O)C2(C)C)c(Cl)c1 [EM-7919] | – | – | – | – | – | 0.0067 µM | 29.0% | 9% | 28% | 53% | –
14 | CC(C)NCc1ccc(OCCCN2C(=S)N(c3ccc(C#N)c(C(F)(F)F)c3)C(=O)C2(C)C)cn1 [EM-7926] | – | – | – | – | – | 0.0079 µM | 1.5% | 14% | 44% | 72% | –
15 | CN(C)Cc1ccc(OCCCN2C(=S)N(c3ccc(C#N)c(C(F)(F)F)c3)C(=O)C2(C)C)cn1 [EM-7927] | – | – | – | – | – | 0.0069 µM | 2.4% | 61% | 32% | 55% | –
16 | COc1cc(CNC(C)C)ccc1OCCCN1C(=S)N(c2ccc(C#N)c(C(F)(F)F)c2)C(=O)C1(C)C [EM-7930] | – | – | – | – | – | 0.0095 µM | 0.5% | 41% | 47% | 71% | –
17 | CC(C)NS(=O)(=O)c1ccc(OCCCN2C(=S)N(c3ccc(C#N)c(C(F)(F)F)c3)C(=O)C2(C)C)cc1 [EM-7957] | – | – | – | – | – | 0.0176 µM | 5.9% | 75% | 44% | 72% | –
18 | CCC(c1ccc(OCCC2(O)CCN(c3ccc(C#N)c(C(F)(F)F)c3)CC2)c(C)c1)N1CCCC1 (stereo not drawn) [EM-8003] | 0.0223 µM | 6.4% | 44% | 11% | 35% | – | – | – | – | – | –
19 | CCC(CC)NC(CC)c1ccc(OCCC2(O)CCN(c3ccc(C#N)c(C(F)(F)F)c3)CC2)c(C)c1 (stereo not drawn) [EM-8006] | 0.0308 µM | 8.1% | 40% | 14% | 32% | – | – | – | – | – | –
20 | CC1(C)C(=O)N(c2ccc(C#N)c(C(F)(F)F)c2)C(=S)N1CCCOc1ccc(S(C)(=O)=O)cc1 [EM-8056] | – | – | – | – | – | 0.012 µM | 6.7% | – | – | – | inhibition in vivo at 0.5 mg [3, 15]: 80%; inhibition in vivo at 0.5 mg [3, 16]: 91%; inhibition in vivo at 0.5 mg [3, 17]: 49%
21 | N#Cc1ccc(N2CCC(O)(CCOc3ccc(-c4cccnc4)c(CN4CCCC4)c3)CC2)cc1C(F)(F)F [EM-8058] | 0.0565 µM | 1.5% | 6% | 0% | 2% | – | – | – | – | – | –
22 | N#Cc1ccc(N2CCC(O)(CCOc3cccc(CN4CCCC4)c3)CC2)cc1C(F)(F)F [EM-8059] | 0.0689 µM | 1.0% | 0% | 1% | 21% | – | – | – | – | – | –
23 | CC1(C)C(=O)N(c2ccc(C#N)c(C(F)(F)F)c2)C(=S)N1CCCOc1ccc(-n2ccnc2)cc1 [EM-8062] | – | – | – | – | – | 0.0066 µM | 15.6% | – | – | – | inhibition in vivo at 0.5 mg [3, 15]: 63%; inhibition in vivo at 0.5 mg [3, 16]: 79%; inhibition in vivo at 0.5 mg [3, 17]: 37%
24 | CCCC(c1ccc(OCCC2(O)CCN(c3ccc(C#N)c(C(F)(F)F)c3)CC2)cc1)N1CCCC1 (stereo not drawn) [EM-8096] | 0.0196 µM | 6.9% | 50% | 8% | 55% | – | – | – | – | – | –
